Source: PMC10618743 (Cancer Discovery, 2023)

Key:
CAL148 cells = test: Cell viability CellTiter-Glo; type: cell-based; details: Homo sapiens, CAL-148; CAL148, H1047R + D350N; 72 hours; read-out: CTGlo GMean GI50 (95% CI)
Procedure: (§1) Cell viability was measured using CellTiter-Glo (Promega, #G9243). Indicated cell lines were seeded according to Supplementary Table S3 in 50 μL of media in 384-well plates, with 72 hours of treatment at 37°C with 5% CO2.

CAL33 cells = test: Cell viability CellTiter-Glo; type: cell-based; details: Homo sapiens, CAL-33; CAL33, H1047R; 72 hours; read-out: CTGlo GMean GI50 (95% CI)
Procedure: as §1

NCIH1048 cells = test: Cell viability CellTiter-Glo; type: cell-based; details: Homo sapiens, NCI-H1048; NCIH1048, H1047R + K111R; 72 hours; read-out: CTGlo GMean GI50 (95% CI)
Procedure: as §1

OAW42 cells = test: Cell viability CellTiter-Glo; type: cell-based; details: Homo sapiens, OAW-42; OAW42, H1047L; 72 hours; read-out: CTGlo GMean GI50 (95% CI)
Procedure: as §1

[1] = test system: insulin-mediated glucose uptake in primary human subcutaneous adipocytes; test: Human adipocyte 3H-2-deoxyglucose uptake; type: cell-based
Procedure: Primary human subcutaneous adipocytes were treated with a test compound or vehicle for 1 hour followed by the addition of 10 nmol/L insulin and ^3H-2-deoxyglucose (Zen Bio Durham, assay #CA-25, Lot #SL0071). Cytochalasin B treatment controlled for nonspecific glucose uptake. Corrected counts per minute were determined using a scintillation counter.

Plasma exposure in mice = type: in vivo, mouse
[2] = test system: pAKT (S473) in CAL-33 tumors; test: CAL-33 tumor PK/PD, pAKT/AKT Western blot; type: in vivo, mouse; details: 50 mg/kg q.d.
[3] = test system: glucose oxidation in tumor and skeletal muscle; test: [U-13C]-glucose metabolic profiling in CAL-33 tumor-bearing mice; type: in vivo, mouse; details: alpelisib 50 mg/kg; 30 minutes after [U-13C]-glucose
[4] = test system: Detroit 562 HNSCC xenograft; test: Detroit 562 xenograft efficacy study; type: in vivo, mouse
[5] = test system: GP2d colon cancer xenograft; test: GP2d xenograft efficacy study; type: in vivo, mouse
[6] = test system: NCI-H1048 lung carcinoma xenograft; test: NCI-H1048 xenograft efficacy study; type: in vivo, mouse; details: Alpelisib 50 mg/kg QD, Day 23
[7] = test system: HCC1954 breast cancer xenograft; test: HCC1954 xenograft efficacy study; type: in vivo, mouse; details: Alpelisib 50 mg/kg QD, Day 28
[8] = test system: T47D ER+HER2- breast cancer xenograft; test: T47D xenograft efficacy study; type: in vivo, mouse; details: Alpelisib 50 mg/kg QD, Day 20
[9] = cited from earlier work
[10] = patients; cited from earlier work
[11] = STX-478 100 mg/kg q.d., alpelisib 50 mg/kg q.d.

Compound: Cc1nc(NC(=O)N2CCC[C@H]2C(N)=O)sc1-c1ccnc(C(C)(C)C(F)(F)F)c1 [alpelisib]
- GI50 (CAL148 cells): 962 nM
- GI50 (CAL33 cells): 340 nM
- GI50 (NCIH1048 cells): 67 nM
- GI50 (OAW42 cells): 601 nM
- glucose uptake inhibition ([1]; 10 μmol/L): nearly complete inhibition
- Emax ([1]; Homo sapiens, Adipocyte, 10 nmol/L insulin, read-out: maximum effect (Emax) for glucose uptake inhibition): 88%
- mouse exposure over exposure of maximum approved human dose (Plasma exposure in mice; 50 mg/kg q.d. in mice): approximately 2 fold
- AUC (Plasma exposure in mice; mouse, plasma, oral, mice, 50 mg/kg q.d.): ~75000 ng·h/mL
- average pAKT suppression (treated/vehicle AUC1–12h) [2]: 66%
- glucose oxidation in skeletal muscle [3]: reductions in glucose oxidation in the skeletal muscle
- TGI (%) ([4]; Alpelisib 50 mg/kg QD, Day 22): 96%
- tumor regressions [4, 11]: tumor regressions in five of the nine study animals
- TGI (%) ([5]; Alpelisib 50 mg/kg QD, Day 28): 79%
- tumor regressions (waterfall plot) [5, 11]: no regression
- TGI (%) [6]: 87%
- TGI (%) [7]: 77%
- TGI (%) [8]: 100%
- exposure of the maximum approved human dose (AUC) [9]: ~33,000 ng*h/mL
- rate of permanent discontinuations [10]: ≤ 46%
- rate of safety-related dose reduction [10]: up to 42%
